Test results as given in PMC5218480 (PLoS ONE, 2017).

System: MV-4-11 cells
Assay: Gene expression microarray analysis (Affymetrix PrimeView) and GSEA
Assay type: cell-based, human
Set-up: RFU PODN (11730768_x_at) / Fold change /veh PODN (11730768_x_at) / RFU LINC00158 (11744669_a_at) / Fold change /veh LINC00158 (11744669_a_at) / RFU DUSP10 (11751237_a_at) / Fold change /veh DUSP10 (11751237_a_at) / RFU ID3 (11757404_x_at) / Fold change /veh ID3 (11757404_x_at) / RFU PLEKHG5 (11737974_s_at) / Fold change /veh PLEKHG5 (11737974_s_at) / RFU LRRC4B (11730491_at) / Fold change /veh LRRC4B (11730491_at) / RFU GIMAP4 (11747438_a_at) / Fold change /veh GIMAP4 (11747438_a_at) / RFU KRT8 (11758183_x_at) / Fold change /veh KRT8 (11758183_x_at) / RFU CNN1 (11734310_a_at) / Fold change /veh CNN1 (11734310_a_at) / RFU VPS37D (11726825_at) / Fold change /veh VPS37D (11726825_at) / RFU C10orf10 (11716522_x_at) / Fold change /veh C10orf10 (11716522_x_at) / RFU KIR2DL2 /// KIR2DL4 /// KIR2DL5A /// KIR2DL5B /// KIR2DS1 /// KIR2DS2 /// KIR2DS3 /// KIR2DS4 /// KIR3DL3 /// KIR3DL3 /// KIR3DS1 (11738374_at) / Fold change /veh KIR2DL2 /// KIR2DL4 /// KIR2DL5A /// KIR2DL5B /// KIR2DS1 /// KIR2DS2 /// KIR2DS3 /// KIR2DS4 /// KIR3DL3 /// KIR3DL3 /// KIR3DS1 (11738374_at) / RFU C1QL1 (11718748_at) / Fold change /veh C1QL1 (11718748_at) / RFU TMPRSS4 (11747572_a_at) / Fold change /veh TMPRSS4 (11747572_a_at) / RFU HAMP (11756126_x_at) / Fold change /veh HAMP (11756126_x_at) / RFU RNFT2 (11725882_a_at) / Fold change /veh RNFT2 (11725882_a_at) / RFU NR4A2 (11747474_a_at) / Fold change /veh NR4A2 (11747474_a_at) / RFU ABCC12 (11746883_a_at) / Fold change /veh ABCC12 (11746883_a_at) / RFU TMEM136 (11760407_x_at) / Fold change /veh TMEM136 (11760407_x_at) / RFU CLDN22 /// WWC2 (11732394_at) / Fold change /veh CLDN22 /// WWC2 (11732394_at) / RFU HLA-DPB1 (11760878_x_at) / Fold change /veh HLA-DPB1 (11760878_x_at) / RFU SPINT1 (11716480_a_at) / Fold change /veh SPINT1 (11716480_a_at) / RFU GAP43 (11754022_s_at) / Fold change /veh GAP43 (11754022_s_at) / RFU A4GNT (11735810_at) / Fold change /veh A4GNT (11735810_at) / RFU PRB3 (11715151_x_at) / Fold change /veh PRB3 (11715151_x_at) / RFU TUBB4B (11761932_at) / Fold change /veh TUBB4B (11761932_at) / RFU CAPN14 (11732068_a_at) / Fold change /veh CAPN14 (11732068_a_at) / RFU TMCC2 (11721928_a_at) / Fold change /veh TMCC2 (11721928_a_at) / RFU IRGQ (11745062_a_at) / Fold change /veh IRGQ (11745062_a_at) / RFU FAM174B (11720279_a_at) / Fold change /veh FAM174B (11720279_a_at) / RFU TMPRSS4 (11748680_a_at) / Fold change /veh TMPRSS4 (11748680_a_at) / RFU FAM212B (11763350_a_at) / Fold change /veh FAM212B (11763350_a_at) / RFU PLEKHG5 (11743358_a_at) / Fold change /veh PLEKHG5 (11743358_a_at) / RFU ZSCAN30 (11745921_a_at) / Fold change /veh ZSCAN30 (11745921_a_at) / RFU CMKLR1 (11741424_a_at) / Fold change /veh CMKLR1 (11741424_a_at) / RFU LOC101060620 /// MAPK8IP1 (11723275_at) / Fold change /veh LOC101060620 /// MAPK8IP1 (11723275_at) / RFU SPTSSB (11747773_x_at) / Fold change /veh SPTSSB (11747773_x_at) / RFU PRSS12 (11739890_at) / Fold change /veh PRSS12 (11739890_at) / RFU BIN1 (11741810_x_at) / Fold change /veh BIN1 (11741810_x_at) / RFU WNT11 (11732464_a_at) / Fold change /veh WNT11 (11732464_a_at) / RFU C10orf10 (11716521_a_at) / Fold change /veh C10orf10 (11716521_a_at) / RFU C5orf56 (11738089_at) / Fold change /veh C5orf56 (11738089_at) / RFU CYB561 (11721691_x_at) / Fold change /veh CYB561 (11721691_x_at) / RFU ANKRD19P (11752326_a_at) / Fold change /veh ANKRD19P (11752326_a_at) / RFU OR2T12 /// OR2T33 /// OR2T8 (11738714_s_at) / Fold change /veh OR2T12 /// OR2T33 /// OR2T8 (11738714_s_at) / RFU VCAN (11748164_a_at) / Fold change /veh VCAN (11748164_a_at) / RFU JSRP1 (11732532_at) / Fold change /veh JSRP1 (11732532_at) / RFU KRTAP10-11 (11738290_x_at) / Fold change /veh KRTAP10-11 (11738290_x_at) / RFU MYO3A (11730013_a_at) / Fold change /veh MYO3A (11730013_a_at) / RFU EBF3 (11725865_a_at) / Fold change /veh EBF3 (11725865_a_at) / RFU CAMK2N1 (11719241_x_at) / Fold change /veh CAMK2N1 (11719241_x_at) / RFU C5orf56 (11738088_a_at) / Fold change /veh C5orf56 (11738088_a_at) / RFU OLFML3 (11715873_a_at) / Fold change /veh OLFML3 (11715873_a_at) / RFU LOC100653217 /// NTM (11731650_a_at) / Fold change /veh LOC100653217 /// NTM (11731650_a_at) / RFU MAPK11 (11762145_a_at) / Fold change /veh MAPK11 (11762145_a_at) / RFU FIZ1 (11724087_x_at) / Fold change /veh FIZ1 (11724087_x_at) / RFU OASL (11726364_x_at) / Fold change /veh OASL (11726364_x_at) / RFU SOX15 (11748057_x_at) / Fold change /veh SOX15 (11748057_x_at) / RFU CD79A (11719716_a_at) / Fold change /veh CD79A (11719716_a_at) / RFU HIST1H1D (11736915_at) / Fold change /veh HIST1H1D (11736915_at) / RFU CASKIN2 (11723855_a_at) / Fold change /veh CASKIN2 (11723855_a_at) / RFU LOC730098 (11760151_x_at) / Fold change /veh LOC730098 (11760151_x_at) / RFU OR4N2 (11742367_at) / Fold change /veh OR4N2 (11742367_at) / RFU PRRT2 (11749266_a_at) / Fold change /veh PRRT2 (11749266_a_at) / RFU SNX32 (11753110_a_at) / Fold change /veh SNX32 (11753110_a_at) / RFU CDHR5 (11726645_a_at) / Fold change /veh CDHR5 (11726645_a_at) / RFU RCAN1 (11760418_a_at) / Fold change /veh RCAN1 (11760418_a_at) / RFU FAM167A (11723789_a_at) / Fold change /veh FAM167A (11723789_a_at) / RFU FAM26E (11764081_at) / Fold change /veh FAM26E (11764081_at) / RFU ISYNA1 (11749810_s_at) / Fold change /veh ISYNA1 (11749810_s_at) / RFU ACY1 (11761880_at) / Fold change /veh ACY1 (11761880_at) / RFU 11764098_at / Fold change /veh 11764098_at / RFU SAMD14 (11745864_x_at) / Fold change /veh SAMD14 (11745864_x_at) / RFU NPB (11741838_a_at) / Fold change /veh NPB (11741838_a_at) / RFU TMPRSS6 (11731388_a_at) / Fold change /veh TMPRSS6 (11731388_a_at) / RFU KRTAP10-2 (11738614_at) / Fold change /veh KRTAP10-2 (11738614_at) / RFU ARHGAP8 /// PRR5-ARHGAP8 (11727945_x_at) / Fold change /veh ARHGAP8 /// PRR5-ARHGAP8 (11727945_x_at) / RFU KRTAP5-7 /// NADSYN1 (11734609_at) / Fold change /veh KRTAP5-7 /// NADSYN1 (11734609_at) / RFU RASL12 (11751679_a_at) / Fold change /veh RASL12 (11751679_a_at) / RFU CDKN2B (11736163_a_at) / Fold change /veh CDKN2B (11736163_a_at) / RFU PRF1 (11729649_at) / Fold change /veh PRF1 (11729649_at) / RFU, ZNF638 /// ZNF638-IT1 / Fold change vs veh, ZNF638 /// ZNF638-IT1 / RFU, PANK3 / Fold change vs veh, PANK3 / RFU, SH3YL1 / Fold change vs veh, SH3YL1 / RFU, ZEB2 / Fold change vs veh, ZEB2 / RFU, NRIP1 / Fold change vs veh, NRIP1 / RFU, PTTG1IP / Fold change vs veh, PTTG1IP / RFU, CAPN2 / Fold change vs veh, CAPN2 / RFU, MED14 / Fold change vs veh, MED14 / RFU, SNORA58 / Fold change vs veh, SNORA58 / RFU, C1orf63 / Fold change vs veh, C1orf63 / RFU, LRRFIP1 / Fold change vs veh, LRRFIP1 / RFU, NDUFAF7 / Fold change vs veh, NDUFAF7 / RFU, SLC12A2 / Fold change vs veh, SLC12A2 / RFU, IBTK / Fold change vs veh, IBTK / RFU, ESF1 / Fold change vs veh, ESF1 / Fold change vs veh, TMEM50B / RFU, TAOK1 / Fold change vs veh, TAOK1 / RFU, ACBD3 / Fold change vs veh, ACBD3 / RFU, TMA16 / Fold change vs veh, TMA16 / RFU, RWDD3 / Fold change vs veh, RWDD3 / RFU, BCAT1 / Fold change vs veh, BCAT1 / RFU, EDEM3 / Fold change vs veh, EDEM3 / RFU, TMEM33 / Fold change vs veh, TMEM33 / RFU, WDR75 / Fold change vs veh, WDR75 / RFU, AHCTF1 / Fold change vs veh, AHCTF1 / RFU, TFRC / Fold change vs veh, TFRC / RFU, ZDHHC17 / Fold change vs veh, ZDHHC17 / RFU, NOM1 / Fold change vs veh, NOM1 / RFU, ARL8B / Fold change vs veh, ARL8B / RFU, ZBTB11 / Fold change vs veh, ZBTB11 / RFU, TAMM41 / Fold change vs veh, TAMM41 / RFU, KIAA1704 /// LOC100996395 / Fold change vs veh, KIAA1704 /// LOC100996395 / RFU, ING1 / Fold change vs veh, ING1 / RFU, TRMT61B / Fold change vs veh, TRMT61B / RFU, FUBP3 / Fold change vs veh, FUBP3 / RFU, TP53 / Fold change vs veh, TP53 / RFU, TNKS2 / Fold change vs veh, TNKS2 / RFU, ZFP14 / Fold change vs veh, ZFP14 / RFU, ACTR2 / Fold change vs veh, ACTR2 / RFU, PPP3R1 / Fold change vs veh, PPP3R1 / RFU, PIK3R1 / Fold change vs veh, PIK3R1 / RFU, HNRNPA1 / Fold change vs veh, HNRNPA1 / RFU, RNF170 / Fold change vs veh, RNF170 / RFU, ZNF28 / Fold change vs veh, ZNF28 / RFU, RNGTT / Fold change vs veh, RNGTT / RFU, OGT / Fold change vs veh, OGT / RFU, BRD1 / Fold change vs veh, BRD1 / RFU, MARS / Fold change vs veh, MARS / RFU, ZNF655 / Fold change vs veh, ZNF655 / RFU, FAHD1 / Fold change vs veh, FAHD1 / RFU, BDP1 / Fold change vs veh, BDP1 / RFU, LRRCC1 / Fold change vs veh, LRRCC1 / RFU, ARID1A / Fold change vs veh, ARID1A / RFU, ZNF146 / Fold change vs veh, ZNF146 / RFU, ZNF330 / Fold change vs veh, ZNF330 / RFU, GPN3 / Fold change vs veh, GPN3 / RFU, C9orf123 / Fold change vs veh, C9orf123 / RFU, N4BP2L2 / Fold change vs veh, N4BP2L2 / RFU, ARFIP1 / Fold change vs veh, ARFIP1 / RFU, FAM179B / Fold change vs veh, FAM179B / RFU, BCL10 / Fold change vs veh, BCL10 / RFU, UHRF1BP1L / Fold change vs veh, UHRF1BP1L / RFU, BET1 / Fold change vs veh, BET1 / RFU, CNOT2 / Fold change vs veh, CNOT2 / RFU, ZNF268 / Fold change vs veh, ZNF268 / Fold change vs veh, ZNF507 / RFU, DGCR2 / Fold change vs veh, DGCR2 / RFU, WDSUB1 / Fold change vs veh, WDSUB1 / Fold change vs veh, HSP90B1 /// MIR3652 / RFU, ADSS / Fold change vs veh, ADSS / RFU, GK / Fold change vs veh, GK / RFU, ZNF148 / Fold change vs veh, ZNF148 / RFU, TAF9 / Fold change vs veh, TAF9 / RFU, SLC1A5 / Fold change vs veh, SLC1A5 / RFU, SLMO2 / Fold change vs veh, SLMO2 / RFU, ABCC4 / Fold change vs veh, ABCC4 / RFU, LOC101060439 /// RAP1B / Fold change vs veh, LOC101060439 /// RAP1B / RFU, RFX7 / Fold change vs veh, RFX7 / RFU, GTPBP10 / Fold change vs veh, GTPBP10 / RFU, CNEP1R1 / Fold change vs veh, CNEP1R1 / RFU, BIVM-ERCC5 /// ERCC5 / Fold change vs veh, BIVM-ERCC5 /// ERCC5 / RFU, ILF3 / Fold change vs veh, ILF3 / RFU 11762660_at / Fold change /veh 11762660_at / RFU VCAN (11757783_s_at) / Fold change /veh VCAN (11757783_s_at) / RFU DDX43 (11728927_at) / Fold change /veh DDX43 (11728927_at) / RFU KRT8 (11758188_x_at) / Fold change /veh KRT8 (11758188_x_at) / RFU NKD1 (11759106_at) / Fold change /veh NKD1 (11759106_at) / RFU SRD5A1 (11742802_a_at) / Fold change /veh SRD5A1 (11742802_a_at) / RFU TPSAB1 /// TPSB2 (11721975_s_at) / Fold change /veh TPSAB1 /// TPSB2 (11721975_s_at) / RFU GSTM3 (11746129_a_at) / Fold change /veh GSTM3 (11746129_a_at) / RFU IL23R (11737362_x_at) / Fold change /veh IL23R (11737362_x_at) / RFU TMEM51 (11727254_a_at) / Fold change /veh TMEM51 (11727254_a_at) / RFU PIWIL2 (11732686_x_at) / Fold change /veh PIWIL2 (11732686_x_at) / RFU ORM1 (11744905_x_at) / Fold change /veh ORM1 (11744905_x_at) / RFU CCDC152 (11743942_at) / Fold change /veh CCDC152 (11743942_at) / RFU ECM1 (11717891_a_at) / Fold change /veh ECM1 (11717891_a_at) / RFU IL23R (11748794_a_at) / Fold change /veh IL23R (11748794_a_at) / RFU TNFAIP8L3 (11732012_x_at) / Fold change /veh TNFAIP8L3 (11732012_x_at) / RFU MBOAT4 (11741988_at) / Fold change /veh MBOAT4 (11741988_at) / RFU 11764193_at / Fold change /veh 11764193_at / RFU TMEM53 (11763286_at) / Fold change /veh TMEM53 (11763286_at) / RFU MAGEB2 (11727129_at) / Fold change /veh MAGEB2 (11727129_at) / RFU TMEM200A (11744735_a_at) / Fold change /veh TMEM200A (11744735_a_at) / RFU CCDC152 (11751479_a_at) / Fold change /veh CCDC152 (11751479_a_at) / RFU FAM211A (11726209_a_at) / Fold change /veh FAM211A (11726209_a_at) / RFU RGS16 (11746705_a_at) / Fold change /veh RGS16 (11746705_a_at) / RFU VCAN (11755009_s_at) / Fold change /veh VCAN (11755009_s_at) / RFU RHOB (11743442_s_at) / Fold change /veh RHOB (11743442_s_at) / RFU RGS16 (11720943_a_at) / Fold change /veh RGS16 (11720943_a_at) / RFU RGS16 (11720944_at) / Fold change /veh RGS16 (11720944_at) / RFU, VPS4B / Fold change vs veh, VPS4B / RFU, CREB1 / Fold change vs veh, CREB1 / RFU, DNAJC13 / Fold change vs veh, DNAJC13 / RFU, GNAQ / Fold change vs veh, GNAQ / RFU, CDK5R1 / Fold change vs veh, CDK5R1 / RFU, ZRANB3 / Fold change vs veh, ZRANB3 / RFU, CUL4A / Fold change vs veh, CUL4A / RFU, CCNY / Fold change vs veh, CCNY / RFU, UFL1 / Fold change vs veh, UFL1 / RFU, COG3 / Fold change vs veh, COG3 / RFU, DIAPH2 / Fold change vs veh, DIAPH2 / RFU, SKA2 / Fold change vs veh, SKA2 / RFU, AFF3 / Fold change vs veh, AFF3 / RFU, LMF1 / Fold change vs veh, LMF1 / RFU, IPO11 / Fold change vs veh, IPO11 / RFU, DFFB / Fold change vs veh, DFFB / RFU, FOXP1 / Fold change vs veh, FOXP1 / RFU, CARD8 / Fold change vs veh, CARD8 / RFU, STRN3 / Fold change vs veh, STRN3 / RFU, ADK / Fold change vs veh, ADK / RFU, RASSF2 / Fold change vs veh, RASSF2 / RFU, WIPF1 / Fold change vs veh, WIPF1 / RFU, LARP1B / Fold change vs veh, LARP1B / RFU, RASA1 / Fold change vs veh, RASA1 / RFU, RB1 / Fold change vs veh, RB1 / RFU, PPFIA1 / Fold change vs veh, PPFIA1 / RFU, MAT2A / Fold change vs veh, MAT2A / RFU, CCT5 / Fold change vs veh, CCT5 / RFU, WDR92 / Fold change vs veh, WDR92 / RFU, CUX1 / Fold change vs veh, CUX1 / RFU, TTC7A / Fold change vs veh, TTC7A / RFU, TMEM135 / Fold change vs veh, TMEM135 / RFU, DEPTOR / Fold change vs veh, DEPTOR / RFU, CPM / Fold change vs veh, CPM / RFU, DNAJB6 / Fold change vs veh, DNAJB6 / RFU, CACNA2D3 / Fold change vs veh, CACNA2D3 / RFU, DTX4 / Fold change vs veh, DTX4 / RFU, TFCP2 / Fold change vs veh, TFCP2 / RFU, GMCL1 /// GMCL1P1 / Fold change vs veh, GMCL1 /// GMCL1P1 / RFU, AEBP2 / Fold change vs veh, AEBP2 / RFU, SNHG1 /// SNORD22 /// SNORD25 /// SNORD26 /// SNORD27 /// SNORD28 /// SNORD29 /// SNORD31 / Fold change vs veh, SNHG1 /// SNORD22 /// SNORD25 /// SNORD26 /// SNORD27 /// SNORD28 /// SNORD29 /// SNORD31 / Fold change (Aza/veh), C12orf56 (ProbeSet 11735607_a_at) / Fold change (ACY-1035/veh), C12orf56 (ProbeSet 11735607_a_at) / Fold change (Aza/veh), FGFR1OP (ProbeSet 11751329_s_at) / Fold change (ACY-1035/veh), FGFR1OP (ProbeSet 11751329_s_at) / Fold change (Aza/veh), VPS36 (ProbeSet 11739960_a_at) / Fold change (ACY-1035/veh), VPS36 (ProbeSet 11739960_a_at) / RFU SYPL1 (11715823_x_at) / Fold change /veh SYPL1 (11715823_x_at) / RFU IGFBP7 (11715501_s_at) / Fold change /veh IGFBP7 (11715501_s_at) / RFU REEP3 (11722064_at) / Fold change /veh REEP3 (11722064_at) / RFU IGLL1 (11728026_x_at) / Fold change /veh IGLL1 (11728026_x_at): dose or concentration left out as unconfirmed
Conditions: MV-4-11 cells, 48 hours

SMILES: Nc1ncn([C@@H]2O[C@H](CO)[C@@H](O)[C@H]2O)c(=O)n1 [azacitidine]
- Fold change /veh TMPRSS4 (11747572_a_at): 1.01
